Measurements taken from patent US20120264159A1, “SCREENING SYSTEM FOR MODULATORS OF HER2 MEDIATED TRANSCRIPTION AND HER2 MODULATORS IDENTIFED THEREBY” (BUCK INSTITUTE FOR AGE RESEARCH, priority 2001, published 2012).

Columns and labels:
Type in all cases: cell-based, human
ErbB2 promoter = test: Transiently transfected (episomal) RO6pGL ErbB2 promoter-reporter in MCF-7 cells; conditions: transient transfection of RO6pGL into MCF-7 cells; 0.4 μM TSA, 24 hour
Protocol: FIGS. 11A and 11B show trichostatin A (TSA) responsiveness and DNase I hypersensitivity comparisons between the genomically integrated vs. episomally introduced ErbB2 promoter-reporter construct, RO6pGL, in MCF-7 cells. FIG. 11A: Luciferase activity (relative luminometer units) of the MCF/RO6pGL-9 subline compared to parental MCF-7 cells transiently transfected with the same ErbB2 promoter-reporter plasmid (RO6pGL) and after 24 hour treatment with 0.4 μM TSA, normalized against their respective non-treatment (vehicle only) control conditions. FIG. 11B: DNase 1 hypersensitivity analysis (described in Methods) of nuclei from MCF/RO6pGL-9 vs. MCF-7 cells transiently transfected with RO6pGL, following similar culture treatments with TSA.
In an episomal context and following transient transfection of the RO6pGL construct into MCF-7 cells, TSA produced diametrically opposite (>10-fold stimulatory) effects on this same ErbB2 promoter-driven reporter (FIG. 11). Southern blot comparisons of DNase I treated MCF/R06pGL-9 cell nuclei and those from transfected MCF-7 cells bearing the episomally introduced R06pGL plasmid confirmed the lack of a discrete DNase-I hypersensitivity site in the episomal R06pGL and the presence of such a site in the genomically integrated R06pGL, similar in location and intensity to that found within the endogenous ErbB2 promoter (FIG. 11). […]

ErbB2 transcript = test: Northern blot of ErbB2 transcript levels in ErbB2 overexpressing breast cancer cells
Protocol: The conserved and singular DNase I hypersensitivity sites found in the proximal ErbB2 and ESX promoters (12,15) were assayed as before (12). Briefly, following culture treatment of cells, nuclei isolated by mild detergent lysis in a buffer containing 10 mM Hepes pH 7.9, 1.5 mM MgCl2, 10 mM KCl, 0.4% NP-40, 10% glycerol and 1 mM DTT. Partial DNase I digestions were carried out by varying DNase I treatment times (0-15 minutes at 37( ) at a fixed DNase I concentrations (0.5-1.0 units per 10^6 nuclei). After purifying and restricting the DNA, it was electrophoresed through 0.7% agarose gels and blotted onto nylon membranes, UV-crosslinked and hybridized with randomly ^32P-labelled ErbB2 and ESX promoter probes, as similarly performed for routine Southern blotting. For Northern blotting, total (treated vs. control) cell RNA (10 μg/sample lane) was isolated using TRIzol (Invitrogen) according to manufacturer's specifications, electrophoresed into 1% agarose-formaldehyde gels and transferred onto membranes that were then hybridized with ^32P-labelled ErbB2 and ESX cDNA probes. For transcriptional run-off assays cell nuclei were first isolated from treated and control cells as described for the DNase I studies. Elongatation of initiated nascent RNA chains was performed at 37 (C for 30 minutes using ˜5×10^6 nuclei per reaction in a buffer containing 10 mM Tris pH7.5, 2.5 mM MgCl2, 150 mM KCl, 1 mM DTT, 10% glycerol, 0.5 mM ATP, GTP and CTP, and 100 μCi of [α-^32P]UTP (800 Ci/mmol). Nuclear RNA was purified by the addition of 100 units of RNase-free DNase I (Roche) per reaction for 2 minutes followed by TRIzol processing. Radiolabelled RNA was hybridized (˜4×10^6 cpm) at 68 (C in ExpressHyb (Clontech) for 24 hours to nylon filter membranes previously slotted with 0.5 μg per slot of unlabelled ErbB2 cDNA fragments (from either the transmembrane or C-terminal domains), ESX cDNA fragments, and empty plasmid control, as we have previously described (16). Filters were washed at 64 (C in 0.2 SSC and 0.5% SDS. For Western blotting, whole-cell extracts from control vs. treated cells were boiled in sample loading buffer (1% SDS, 20% glycerol, 100 mM DTT, 50 mM Tris, pH 6.8), gel lanes loaded for constant total protein (15 μg), electrophoresed into 9% sodium dodecyl sulfacte polyacrylamide (SDS-PAGE) gels, transferred onto membranes (Immobilon-P, Millipore), and the protein-bound membranes hybridized with a primary antibody followed by a horseradish peroxidase-conjugated secondary antibody (Sigma), and specific protein bands visualized by chemiluminescent substrate (Pierce), as previously described (10).

ESX transcript = test: Northern blot of ESX transcript levels in SKBR3 cells; conditions: 24 hours TSA treatment
Protocol: (§1) The conserved and singular DNase I hypersensitivity sites found in the proximal ErbB2 and ESX promoters (12,15) were assayed as before (12). Briefly, following culture treatment of cells, nuclei isolated by mild detergent lysis in a buffer containing 10 mM Hepes pH 7.9, 1.5 mM MgCl2, 10 mM KCl, 0.4% NP-40, 10% glycerol and 1 mM DTT. Partial DNase I digestions were carried out by varying DNase I treatment times (0-15 minutes at 37( ) at a fixed DNase I concentrations (0.5-1.0 units per 10^6 nuclei). After purifying and restricting the DNA, it was electrophoresed through 0.7% agarose gels and blotted onto nylon membranes, UV-crosslinked and hybridized with randomly ^32P-labelled ErbB2 and ESX promoter probes, as similarly performed for routine Southern blotting. For Northern blotting, total (treated vs. control) cell RNA (10 μg/sample lane) was isolated using TRIzol (Invitrogen) according to manufacturer's specifications, electrophoresed into 1% agarose-formaldehyde gels and transferred onto membranes that were then hybridized with ^32P-labelled ErbB2 and ESX cDNA probes. For transcriptional run-off assays cell nuclei were first isolated from treated and control cells as described for the DNase I studies. […]

[1] = system: ErbB2 transcript synthesis; test: Nuclear run-off assay of ErbB2 transcript synthesis in SKBR3 cells; conditions: 5 hours, 0.4 μM TSA
Protocol: (§2) The conserved and singular DNase I hypersensitivity sites found in the proximal ErbB2 and ESX promoters (12,15) were assayed as before (12). Briefly, following culture treatment of cells, nuclei isolated by mild detergent lysis in a buffer containing 10 mM Hepes pH 7.9, 1.5 mM MgCl2, 10 mM KCl, 0.4% NP-40, 10% glycerol and 1 mM DTT. […]
(§3) Nuclear run-off experiments were performed on ErbB2 overexpressing breast cancer cells to confirm the conclusion drawn from TSA induced downregulation of luciferase expression in MCF/R06pGL-9 cells that HDAC inhibitors can suppress ErbB2 promoter activity and presumably also repress ErbB2 transcription. […] Slot blot hybridization stringency was adjusted so that no signal could be detected from those control slots containing the empty plasmid.

ESX mRNA synthesis = test: Nuclear run-off assay of ESX mRNA synthesis in SKBR3 cells; conditions: 5 hours, 0.4 μM TSA
Protocol: as §2, §3

[2] = system: ErbB2 and ESX promoter hypersensitive loci; test: DNase I hypersensitivity analysis of ErbB2 and ESX promoters; conditions: SKBR3 cells, 24 hour, 0.4 μM TSA
Protocol: as §1

RO6 HER2 promoter = test: Basal promoter activity of MCF-7b stable RO6 populations; conditions: 10 nM, 24 hours, serum-free media, clone and polyclonal populations
Protocol: Parental cell lines MCF-7, and MDA-453 were transfected with the construct Ro6pGL (FIG. 2) in conjunction with pcMneo construct using lipid-based transfection (Effectene) at a ratio of 20:1 reporter:selectable marker (see, FIG. 4). Monoclonal and polyclonal populations were selected in 0.5 mg/ml G418 over 2 to 4 weeks.
Reporter activity was assayed as follows: From T-150 or T-75 culture flasks, about […] cells/well were plated into a 96 well plate format for high-throughput screening. 24 hours post plating a test agent e.g. a drug from a combinatorial library, was added to the wells at various concentrations. Certain wells were used as controls (e.g. PBS or DMSO vehicle only). Replicate wells ([…] per drug concentration) were run. 24 hours after addition of the test agent the cells were lysed, a luciferase reagent was added and activity in each well was read using a high-throughput screening plate reader (labsystems Fluoroskan). Parallel plates were run for cell viability using an MTT assay (Sigma).

## CC(/C=C/C(=O)NO)=C\[C@@H](C)C(=O)c1ccc(N(C)C)cc1 [TSA, trichostatin A]
ErbB2 promoter
  effect on episomal ErbB2 promoter-driven reporter (stimulation): > 10 fold
ErbB2 transcript; 8 hour TSA treatment, Northern assays (data not shown)
  ErbB2 transcript levels relative to control: < 20 % of control
ErbB2 transcript; MDA-453 and BT-474 cells, similar TSA treatment (data not shown)
  ErbB2 transcript levels: Virtually complete elimination of ErbB2 transcript levels
ErbB2 transcript; SKBR3 cells, 5 hours treatment, TSA 0.05 or 0.40 μM, Act D 10 μg/ml
  ErbB2 mRNA level / decay: greatly enhanced the rate of ErbB2 mRNA decay
ErbB2 transcript; SKBR3 cells, 24 hours, 0.4 μM TSA
  ErbB2 transcript levels: near total disappearance of ErbB2 transcripts
ESX transcript
  increase in ESX transcript levels: 5 fold
[1]
  synthesis of new ErbB2 transcripts: profoundly suppresses synthesis of new ErbB2 transcripts
ESX mRNA synthesis
  ESX mRNA synthesis: preserves ESX mRNA synthesis
[2]
  DNase I hypersensitivity of ErbB2 and ESX promoter loci: lack of any TSA treatment effects on the hypersensitive loci
RO6 HER2 promoter
  basal promoter activity: decreased basal promoter activity
